Measured values as given in the supplement of paper PMC11208160.

experiment: recombinant barcode read abundance after kanamycin selection (control-corrected) (log10(CPM+1)); higher = more efficient recombination; sequences stand for … in AGTGCAGAGAAAATCGGCCAGTTTTCTCTGCCTGCAGTCCGCATGCCGT…ATTTATGCAGCGGACTGCCTTTCTCCCAAAGTGATAAACCGGACAGTATCATGGACCGGTTTTCCCGGTAATCCGTATTTGCAAGGTTGGTTTCACT; site = the 11-nt target
How it was run: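 Oligos holding a promoter, target, barcode and the J23119-driven first 104 bases of the bridge RNA were Gibson-cloned into a vector that supplied the other 73 bp plus a T7-inducible recombinase. This library was co-electroporated with a donor plasmid into E. coli. Two replicates went on chloramphenicol/ampicillin LB agar (control) and two on chloramphenicol/ampicillin/kanamycin with 0.1 mM IPTG. Recombination efficiency is read from averaged, control-corrected barcode counts per million at recombinant junctions, reported as log10(CPM+1).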

| Sequence | recombinant barcode read abundance (log10) |
| --- | --- |
| TCTACCCCTTGGGTTCTAACCTGTTGCTGAT [TCTACCCCTCA_LTGcore_CT_RTGcore_AT] (site TCTACCCCTCA) (LTG core: CT, RTG core: AT) | 0.131 |
| TCTACCCCTTGGGTTCTAACCTGTTGCTGGA [TCTACCCCTCA_LTGcore_CT_RTGcore_TC] (site TCTACCCCTCA) (LTG core: CT, RTG core: TC) | 0.0313 |
| TCTACCCCTTGGGTTCTAACCTGTTGCTGTA [TCTACCCCTCA_LTGcore_CT_RTGcore_TA] (site TCTACCCCTCA) (LTG core: CT, RTG core: TA) | 0.124 |
| TCTACCCGCTGGGTTCTAACCTGTTGCTGGC [TCTACCCCTCA_LTGcore_GC_RTGcore_GC] (site TCTACCCCTCA) (LTG core: GC, RTG core: GC) | 0.124 |
| TCTACCCGTTGGGTTCTAACCTGTTGCTGAC [TCTACCCCTCA_LTGcore_GT_RTGcore_GT] (site TCTACCCCTCA) (LTG core: GT, RTG core: GT) | 0.0436 |
| TGATACCAATGGGTTCTAACCTGTTGCGTTT [TGATACCCTAC_LTGcore_AA_RTGcore_AA] (site TGATACCCTAC) (LTG core: AA, RTG core: AA) | 0.0446 |
| TGATACCAGTGGGTTCTAACCTGTTGCGTCT [TGATACCCTAC_LTGcore_AG_RTGcore_AG] (site TGATACCCTAC) (LTG core: AG, RTG core: AG) | 0.256 |
| TGATACCCATGGGTTCTAACCTGTTGCGTTG [TGATACCCTAC_LTGcore_CA_RTGcore_CA] (site TGATACCCTAC) (LTG core: CA, RTG core: CA) | 0.0326 |
| TGATACCCTTGGGTTCTAACCTGTTGCGTAC [TGATACCCTAC_LTGcore_CT_RTGcore_GT] (site TGATACCCTAC) (LTG core: CT, RTG core: GT) | 0.08 |
| TGATACCCTTGGGTTCTAACCTGTTGCGTAG [TGATACCCTAC_LTGcore_CT_RTGcore_CT] (site TGATACCCTAC) (LTG core: CT, RTG core: CT) | 2.73 |
| TGATACCCTTGGGTTCTAACCTGTTGCGTCA [TGATACCCTAC_LTGcore_CT_RTGcore_TG] (site TGATACCCTAC) (LTG core: CT, RTG core: TG) | 0.796 |
| TGATACCCTTGGGTTCTAACCTGTTGCGTTA [TGATACCCTAC_LTGcore_CT_RTGcore_TA] (site TGATACCCTAC) (LTG core: CT, RTG core: TA) | 0.0153 |
| TGATACCGATGGGTTCTAACCTGTTGCGTTC [TGATACCCTAC_LTGcore_GA_RTGcore_GA] (site TGATACCCTAC) (LTG core: GA, RTG core: GA) | 0.269 |
| TGATACCGGTGGGTTCTAACCTGTTGCGTAG [TGATACCCTAC_LTGcore_GG_RTGcore_CT] (site TGATACCCTAC) (LTG core: GG, RTG core: CT) | 0.108 |
| TGATACCTGTGGGTTCTAACCTGTTGCGTCA [TGATACCCTAC_LTGcore_TG_RTGcore_TG] (site TGATACCCTAC) (LTG core: TG, RTG core: TG) | 0.256 |
| TGTATTCAGTGGGTTCTAACCTGTTGCCTCT [TGTATTCCTAG_LTGcore_AG_RTGcore_AG] (site TGTATTCCTAG) (LTG core: AG, RTG core: AG) | 0.00767 |

| Sequence | recombinant barcode read abundance (log10) |
| --- | --- |
| TGTATTCATTGGGTTCTAACCTGTTGCCTAG [TGTATTCCTAG_LTGcore_AT_RTGcore_CT] (site TGTATTCCTAG) (LTG core: AT, RTG core: CT) | 0.0853 |
| TGTATTCCATGGGTTCTAACCTGTTGCCTAG [TGTATTCCTAG_LTGcore_CA_RTGcore_CT] (site TGTATTCCTAG) (LTG core: CA, RTG core: CT) | 0.0466 |
| TGTATTCCTTGGGTTCTAACCTGTTGCCTAG [TGTATTCCTAG_LTGcore_CT_RTGcore_CT] (site TGTATTCCTAG) (LTG core: CT, RTG core: CT) | 0.129 |
| TGTATTCCTTGGGTTCTAACCTGTTGCCTTA [TGTATTCCTAG_LTGcore_CT_RTGcore_TA] (site TGTATTCCTAG) (LTG core: CT, RTG core: TA) | 0.0748 |
| TGTATTCGATGGGTTCTAACCTGTTGCCTAG [TGTATTCCTAG_LTGcore_GA_RTGcore_CT] (site TGTATTCCTAG) (LTG core: GA, RTG core: CT) | 0.0114 |
| TGTATTCGTTGGGTTCTAACCTGTTGCCTAG [TGTATTCCTAG_LTGcore_GT_RTGcore_CT] (site TGTATTCCTAG) (LTG core: GT, RTG core: CT) | 0.0893 |
| TTATAAAACTGGGTTCTAACCTGTTGCCTGT [TTATAAACTAG_LTGcore_AC_RTGcore_AC] (site TTATAAACTAG) (LTG core: AC, RTG core: AC) | 0.0452 |
| TTATAAAAGTGGGTTCTAACCTGTTGCCTCT [TTATAAACTAG_LTGcore_AG_RTGcore_AG] (site TTATAAACTAG) (LTG core: AG, RTG core: AG) | 0.0267 |
| TTATAAACGTGGGTTCTAACCTGTTGCCTCG [TTATAAACTAG_LTGcore_CG_RTGcore_CG] (site TTATAAACTAG) (LTG core: CG, RTG core: CG) | 0.193 |
| TTATAAACTTGGGTTCTAACCTGTTGCCTCA [TTATAAACTAG_LTGcore_CT_RTGcore_TG] (site TTATAAACTAG) (LTG core: CT, RTG core: TG) | 0.402 |
| TTATAAACTTGGGTTCTAACCTGTTGCCTCT [TTATAAACTAG_LTGcore_CT_RTGcore_AG] (site TTATAAACTAG) (LTG core: CT, RTG core: AG) | 0.0489 |
| TTATAAACTTGGGTTCTAACCTGTTGCCTGT [TTATAAACTAG_LTGcore_CT_RTGcore_AC] (site TTATAAACTAG) (LTG core: CT, RTG core: AC) | 0.0449 |
| TTATAAACTTGGGTTCTAACCTGTTGCCTTA [TTATAAACTAG_LTGcore_CT_RTGcore_TA] (site TTATAAACTAG) (LTG core: CT, RTG core: TA) | 0.076 |
| TTATAAAGCTGGGTTCTAACCTGTTGCCTGC [TTATAAACTAG_LTGcore_GC_RTGcore_GC] (site TTATAAACTAG) (LTG core: GC, RTG core: GC) | 0 |
| TTATAAATCTGGGTTCTAACCTGTTGCCTAG [TTATAAACTAG_LTGcore_TC_RTGcore_CT] (site TTATAAACTAG) (LTG core: TC, RTG core: CT) | 0.235 |
| TTATAAATTTGGGTTCTAACCTGTTGCCTAA [TTATAAACTAG_LTGcore_TT_RTGcore_TT] (site TTATAAACTAG) (LTG core: TT, RTG core: TT) | 0.0515 |
